Reference: patent publication US9980973B2, “Bicyclic heterocycle compounds and their uses in therapy” (ASTEX THERAPEUTICS LIMITED, priority 2012, dated 2018)
Where a name gives a salt, the structure may show the parent alone. Read-outs that look alike come from different tables or passages of the source.

System: EVSA-T (human breast carcinoma)
Assay: Anti-proliferative activity, Alamar Blue assay, EVSA-T
Format: cell-based
[1] = EVSA-T cells, 72 hours, Alamar Blue, dihydrochloride, read-out: EVSA-T prolif
[2] = Homo sapiens, EVSA-T, 72 h, EVSA-T cells, 72 hours, Alamar Blue, read-out: EVSA-T prolif
[3] = Homo sapiens, EVSA-T, read-out: EC50 in EVSA-T cell line assays

Row | Compound | EC50 [2] | EC50 [3] | EC50 [1]
1 | CC1CC(=O)CCN1C[C@H]1CN[C@H](C)CN1CC(=O)N1CC(C)(C)c2ncc(Cc3ccc(F)cc3)cc21 (single isomer, unassigned) [Example 40, dihydrochloride] | – | – | 2.8 nM
2 | C[C@@H]1CN(CC(=O)N2CC(C)(C)c3ncc(C(O)c4ccccc4)cc32)[C@@H](CN2[C@H](C)COC[C@H]2C)CN1 (single isomer, unassigned) [Example 114, 2-[(2R,5R)-2-{[(3R,5R)-3,5-Dimethymorpholin-4-yl]methyl}-5-methylpiperazin-1-yl]-1-{(R or S)-6-[hydroxy(phenyl)methyl]-3,3-dimethyl-1H,2H,3H-pyrrolo[3,2-b]pyridin-1-yl}ethan-1-one dihydrochloride] | – | – | 24 nM
3 | C[C@@H]1CN(CC(=O)N2CC(C)(C)c3ncc(Cc4ccc(F)cc4)cc32)[C@@H](CN2CCC[C@H]2C(F)(F)F)CN1 [Example 36, 1-{6-[(4-Fluorophenyl)methyl]-3,3-dimethyl-1H,2H,3H-pyrrolo[3,2-b]pyridin-1-yl}-2-[(2R,5R)-5-methyl-2-{[(2S)-2-(trifluoromethyl)pyrrolidin-1-yl]methyl}piperazin-1-yl]ethan-1-one] | 12 nM | < 1000 nM | –
4 | C[C@@H]1CN(CC(=O)N2CC(C)(C)c3ncc(Cc4ccc(F)cc4)cc32)[C@@H](CN2C3CCC2COC3)CN1 [Example 17, 1-{6-[(4-Fluorophenyl)methyl]-3,3-dimethyl-1H,2H,3H-pyrrolo[3,2-b]pyridin-1-yl}-2-[(2R,5R)-5-methyl-2-{3-oxa-8-azabicyclo[3.2.1]octan-8-ylmethyl}piperazin-1-yl]ethan-1-one dihydrochloride] | 3.8 nM | < 1000 nM | –
5 | CCCC(F)(F)c1cc2c(cn1)C(C)(C)CN2C(=O)CN1C[C@@H](C)NC[C@@H]1CN1[C@H](C)CN(C(C)=O)C[C@@H]1C [Example 93, 2-[(2R,5R)-2-{[(2R,6S)-4-Acetyl-2,6-dimethylpiperazin-1-yl]methyl}-5-methylpiperazin-1-yl]-1-[6-(1,1-difluorobutyl)-3,3-dimethyl-1H,2H,3H-pyrrolo[3,2-c]pyridin-1-yl]ethan-1-one dihydrochloride] | 7.1 nM | < 1000 nM | –
6 | C[C@@H]1CN(CC(=O)N2CC(C)(C)c3ncc(C(O)c4ccc(F)c(F)c4)cc32)[C@@H](CN2[C@H](C)COC[C@H]2C)CN1 (single isomer, unassigned) [Example 110, (R or S)-1-{6-[(3,4-Difluorophenyl)(hydroxy)meth-yl]-3,3-dimethyl-1H,2H,3H-pyrrolo[3,2-b]pyridin-1-yl}-2-[(2R,5R)-2-{[(3R,5R)-3,5-dimethylmorpholin-4-yl]methyl}-5-methylpiperazin-1-yl]ethan-1-one dihydrochloride] | – | – | 2.8 nM
7 | C[C@@H]1CN(CC(=O)N2CC(C)(C)c3ncc(Cc4ccc(F)cc4)cc32)[C@@H](CN2CCOC(C#N)C2)CN1 (stereo partly drawn) [Example 31, 4-{[(2R,5R)-1-(2-{6-[(4-Fluorophenyl)methyl]-3,3-dimethyl-1H,2H,3H-pyrrolo[3,2-b]pyridin-1-yl}-2-oxoethyl)-5-methylpiperazin-2-yl]methyl}morpholine-2-carbonitrile] | 1.1 nM | < 1000 nM | –
8 | C[C@@H]1CN(CC(=O)N2CC(C)(C)c3ncc(C(O)c4ccc(F)cc4F)cc32)[C@@H](CN2[C@H](C)COC[C@H]2C)CN1 (single isomer, unassigned) [Example 104, (R or S)-1-{6-[(2,4-Difluorophenyl)(hydroxy)meth-yl]-3,3-dimethyl-1H,2H,3H-pyrrolo[3,2-b]pyridin-1-yl}-2-[(2R,5R)-2-{[(3R,5R)-3,5-dimethylmorpholin-4-yl]methyl}-5-methylpiperazin-1-yl]ethan-1-one dihydrochloride] | – | – | 1.3 nM
9 | C[C@@H]1CN(CC(=O)N2CC(C)(C)c3ncc(C(O)c4cc(F)ccc4F)cc32)[C@@H](CN2[C@H](C)COC[C@H]2C)CN1 (single isomer, unassigned) [Example 115, 1-{(R or S)-6-[(2,5-Difluorophenyl)(hydroxy)meth-yl]-3,3-dimethyl-1H,2H,3H-pyrrolo[3,2-b]pyridin-1-yl}-2-[(2R,5R)-2-{[(3R,5R)-3,5-dimethylmorpholin-4-yl]methyl}-5-methylpiperazin-1-yl]ethan-1-one dihydrochloride] | – | < 1000 nM | 9.5 nM

Continued, in another order:

Row | EC50 [2] | EC50 [3] | Compound | EC50 [1]
10 | 2.1 nM | < 1000 nM | CC1CS(=O)(=O)CCN1C[C@H]1CN[C@H](C)CN1CC(=O)N1CC(C)(C)c2ncc(Cc3ccc(F)cc3)cc21 (stereo partly drawn) [Example 9, 4-{[(2R,5R)-1-(2-{6-[(4-Fluorophenyl)methyl]-3,3-dimethyl-1H,2H,3H-pyrrolo[3,2-b]pyridin-1-yl}-2-oxoethyl)-5-methylpiperazin-2-yl]methyl}-3-methyl-1λ^6,4-thiomorpholine-1,1-dione dihydrochloride] | –
11 | 0.3 nM | < 1000 nM | C[C@@H]1CN(CC(=O)N2CC(C)(C)c3ncc(Cc4ccc(F)cc4)cc32)[C@@H](CN2CCOCC2(C)C)CN1 [Example 5, 2-[(2R,5R)-2-[(3,3-Dimethylmorpholin-4-yl)methyl]-5-methylpiperazin-1-yl]-1-{6-[(4-fluorophenyl)methyl]-3,3-dimethyl-1H,2H,3H-pyrrolo[3,2-b]pyridin-1-yl}ethan-1-one dihydrochloride] | –
12 | 4.6 nM | < 1000 nM | C[C@@H]1CN(CC(=O)N2CC(C)(C)c3ncc(Cc4ccc(F)cc4)cc32)[C@@H](CN2CCC(F)(F)C2)CN1 [Example 6, 2-[(2R,5R)-2-[(3,3-Difluoropyrrolidin-1-yl)methyl]-5-methylpiperazin-1-yl]-1-{6-[(4-fluorophenyl)methyl]-3,3-dimethyl-1H,2H,3H-pyrrolo[3,2-b]pyridin-1-yl}ethan-1-one dihydrochloride] | –
13 | 6 nM | < 1000 nM | CO[C@@H]1CN(C[C@H]2CN[C@H](C)CN2CC(=O)N2CC(C)(C)c3ncc(Cc4ccc(F)cc4)cc32)C[C@@H]1F (mixture of isomers) [Example 41] | –
14 | 3.7 nM | < 1000 nM | C[C@@H]1CN(CC(=O)N2CC(C)(C)c3ncc(Cc4ccc(F)cc4)cc32)[C@@H](CN2Cc3cccnc3C2)CN1 [Example 21, 1-{6-[(4-Fluorophenyl)methyl]-3,3-dimethyl-1H,2H,3H-pyrrolo[3,2-b]pyridin-1-yl}-2-[(2R,5R)-5-methyl-2-{5H,6H,7H-pyrrolo[3,4-b]pyridin-6-ylmethyl}piperazin-1-yl]ethan-1-one dihydrochloride] | –
15 | 6.8 nM | < 1000 nM | C[C@@H]1CN(CC(=O)N2CC(C)(C)c3ncc(Cc4ccc(F)cc4)cc32)[C@@H](CN2CCC(F)(F)CC2)CN1 [Example 4, 2-[(2R,5R)-2-[(4,4-Difluoropiperidin-1-yl)methyl]-5-methylpiperazin-1-yl]-1-{6-[(4-fluorophenyl)methyl]-3,3-dimethyl-1H,2H,3H-pyrrolo[3,2-b]pyridin-1-yl}ethan-1-one dihydrochloride] | –
